Experimental data as given in patent publication US6905834B1, “Bioluminescent bioreporter integrated circuit detection methods” (UT-Battelle, LLC, priority 1997, dated 2005).
Where two headings read alike, the source gives them in different places.

Assays:
Type in all cases: cell-based, Pseudomonas putida
P. putida B2 [1] = assay: Assays of growing cells of tod-lux reporter P. putida B2; conditions: for bioluminescent response: 90 minutes exposure
Procedure: (§1) In the batch and reactor studies, bioluminescence was measured using a photomultiplier, which converts the light to an electric current. The photomultiplier in the resting cell assays and the reactor system was connected to a computer and bioluminescence as namps current was recorded.
Assays of growing cells were conducted as described by Heitzer et al. (1992). An overnight culture from a frozen stock of P. putida B2 was prepared in a 250-ml Erlenmeyer flask containing 100 ml LB and 50 μg ml^−1 kanamycin. A subculture was prepared and cells were used in mid-log phase (OD546 of 0.45-0.48). A 2.5-ml aliquot was added to 2.5 ml mineral salts medium (MSM) containing 0-50 mg L^−1 toluene or 10-100 μl of JP4 jet fuel-saturated MSM. The concentration of toluene in water saturated with JP4 jet fuel is approximately 8 mg L^−1 (Smith et al., 1981). Bioluminescence was measured every 30 min.

P. putida B2 [2] = assay: Immobilized cell reactor (DVR) with alginate-encapsulated P. putida B2: bioluminescence and TCE co-metabolism
Procedure: as §1
P. putida B2 was encapsulated in alginate beads for the immobilized cell reactor system. Cells were grown in 1 L LB to an OD546 of 1.2 and were centrifuged at 5500×g for 10 min, washed three times in 0.9% NaCl and suspended in 40 ml 0.9% NaCl. The cell suspension was added to 80 ml of an alginic acid solution (28 g L^−1 low viscosity alginate, 0.9% NaCl) (Webb, 1992). The cell-alginate suspension was placed in a 60-ml syringe, forced through a 25-gauge needle, and allowed to drop into a 0.5 M CaCl2 Solution. The alginate was cross-linked by the Ca^2+ ions, thus encapsulating the cells. The cells were subsequently placed in a fresh solution of 0.1 M CaCl2 and allowed to sit for 30 min prior to use.
A differential volume reactor (DVR) was used to simulate a section of an ideal plug flow reactor. Influent to the reactor was dispersed through a porous metal frit to provide a flat velocity profile to the bed. The reactor measured 5.0 cm i.d.×5.0 cm long. A complete description of this reactor can be found in Webb et al. (1991). In this investigation, a system was designed incorporating the DVR as illustrated in FIG. 17. The system was equipped with three Millipore (Bedford, Mass.) stainless steel substrate containers rated to 690 kPa. The feed from the substrate vessels to the reactor inlet was controlled by two Filson (Middleton, Wis.) 301 HPLC pumps. A flow rate of 0.4 ml min^−1 was maintained. The substrate vessels were pressurized with oxygen to provide the system with an electron acceptor. All medium vessels contained trace mineral medium (Lackey et al., 1993) with the addition of 3 mg L^−1 pyruvic acid and a 0.1 M solution of Tris-base (pH 7.0). phosphate buffers were not used since phosphate ions complex with Ca^2+ ions and disrupt with alginate crosslinking. In addition to this medium, two of the vessels contained either TCE or toluene. The inlet concentration of toluene was altered by using square-wave perturbations with 20-h cycles (10 h with toluene, 10 h without toluene) using an HPLC pump controlled by a timer. During feed portions of the cycle, 10 mg L^−1 toluene was introduced into the inlet of the reactor. The inlet TCE concentration was constant at 20 mg L^−1.
Analysis of TCE in the reactor effluent was performed online using a stripping column (12.5 cm length and 0.4 cm inner diameter) packed with 3-mm glass beads to provide adequate surface area for TCE separation. TCE was stripped with helium, the GC carrier gas. The stripping column outlet was attached to a gas chromatograph (GC, Hewlett Packard (Wilmington, Del.) (HP) 5890 Series II) with an electron capture detector by a heated sample line maintained at 75° C. Automatic injections (25 μl) were made by a computerized control process (HP Chem Station software). The GC was equipped with a cross-linked methyl silicone capillary column (length 30 n, i.d 0.2 mm, 0.33-μm film thickness) while the oven was operated isothermally at 60° C. Other operating parameters included an injection temperature of 150° C., detector temperature of 200° C. and a split ratio of 10:1. This system was equipped with a bypass line around the reactor in order to calibrate the stripping column.
Toluene samples were removed at 0.5-ml aliquots from the effluent sampling port (FIG. 17) and injected into 1.5 ml sample vials. Headspace analysis was performed using a Shimadzu (Columbia, Md.) GC-9A gas chromatograph equipped with a 2.44-m, 3.2-mm diameter Poropak N packed column and a flame ionization detector. The isothermal temperature of the oven was 210° C., and both the detector and injector temperatures were 220° C.

P. putida TVA8 = tested on: P. putida TVA8
P. putida B2 [3] = assay: Resting cell assays of P. putida B2, single and multiple toluene exposures; conditions: 10 mg/L toluene; for Bioluminescent response rate, Multiple Exposure Vial: single vial with multiple additions; for Bioluminescent response rate, Single Exposure Vials: new vial previously unexposed
Procedure: as §1
Cells for resting cell assays were grown on MSM supplemented with 2.7 g L^−1 succinate. A culture of P. putida B2 was harvested at on OD546 of approximately 0.8. The cells were centrifuged at 15000×g for 10 min, and resuspended in MSM to OD546 of 0.6 four milliliters of culture were added to each of six 26-ml vials with Mininert valves (Dynatech, Chantilly, Va.) with stir bars. One vial was used for multiple toluene exposures, while the remainder were used for single exposures. The vials were magnetically stirred in a light-tight sampling cell. Toluene-saturated MSM and MSM alone were added to yield an OD546 of 0.47, and 10 mg L^−1 toluene was injected six times over a 130-h period of the multiple-exposure vial. At the same time points, a single-exposure vial was injected with 10 mg L^−1 toluene. The light response was recorded every 3 min with a photomultiplier connected to a data acquisition computer.

Cc1ccccc1 [Toluene, toluene]
bioluminescent response (in words) (P. putida B2 [1]; 0 and 0.01 mg/l toluene): not a significant bioluminescent response
bioluminescent response (P. putida B2 [1]; 0.1 mg/l toluene): 2.4 namp
bioluminescent response (P. putida B2 [1]; 10, 20 and 50 mg/l toluene): approximately 90 namp
maximum light response (P. putida B2 [2]; 10 mg/L toluene square-wave feed, 20 mg/L TCE): 43.4±6.8 namp
rate of light response decrease (P. putida B2 [2]; after the toluene feed was stopped): 3.4±0.8 namp/hr
rate of light emission increase (P. putida B2 [2]; during toluene feed cycle, 10 mg/L toluene, 20 mg/L TCE): 16.3±1.2 namp/hr
effluent toluene concentration (P. putida B2 [2]; inlet toluene 10 mg/L): 5.8 ± 0.1 mg/L
toluene removal (P. putida B2 [2]; inlet toluene 10 mg/L): 50%
ratio toluene degraded to TCE degraded (P. putida B2 [2]; steady state in DVR): 1.7 μmol toluene degraded/μmol TCE degraded
light response (in words) (P. putida TVA8; approximately 50 mg/L (JP-4 approx. 2%), 2 h): significant light response
bioluminescence relative to background bioluminescence level (P. putida TVA8; at 50 μg toluene/L): 80 fold
Specific Bioluminescence (P. putida TVA8; exposure 2 hours, approximately 50 mg/L, normalized to final OD546, average ± SD of three replicates): 291 ± 6 namp/OD
Specific Bioluminescence (P. putida TVA8; toluene 50 mg/L, 2 h exposure): 290 namp/OD546
maximum bioluminescent response (P. putida B2 [3]; same for single and multiple exposures): 573±127 namp
Bioluminescent response rate, Multiple Exposure Vial (P. putida B2 [3]; time point 1): 95 NAMP/HR
Bioluminescent response rate, Single Exposure Vials (P. putida B2 [3]; time point 2): 137 NAMP/HR
Bioluminescent response rate, Multiple Exposure Vial (P. putida B2 [3]; time point 2): 321 NAMP/HR
Bioluminescent response rate, Single Exposure Vials (P. putida B2 [3]; time point 3): 67 NAMP/HR
Bioluminescent response rate, Multiple Exposure Vial (P. putida B2 [3]; time point 3): 642 NAMP/HR
Bioluminescent response rate, Single Exposure Vials (P. putida B2 [3]; time point 4): 60 NAMP/HR
Bioluminescent response rate, Multiple Exposure Vial (P. putida B2 [3]; time point 4): 768 NAMP/HR
Bioluminescent response rate, Single Exposure Vials (P. putida B2 [3]; time point 5): 60 NAMP/HR
Bioluminescent response rate, Multiple Exposure Vial (P. putida B2 [3]; time point 5): 737 NAMP/HR
Bioluminescent response rate, Single Exposure Vials (P. putida B2 [3]; time point 6): 49 NAMP/HR
Bioluminescent response rate, Multiple Exposure Vial (P. putida B2 [3]; time point 6): 973 NAMP/HR
